Patent EP3431490B1, “CHEMICAL COMPOUNDS FOR USE AS DIAGNOSTIC MARKERS OF INFLAMMATION AND NEOPLAMS, THE METHOD FOR SYNTHESIS OF THE CHEMICAL COMPOUNDS, DIAGNOSTIC KIT FOR USE IN DIAGNOSIS OF INFLAMMATORY PROCESSES AND EPITHELIAL NEOPLASMS AND IN VITRO DIAGNOSTIC METHOD OF INFLAMMATORY PROCESSES AND EPITHELIAL NEOPLASMS” (Uniwersytet Gdanski, priority 2017, dated 2019)

Tested on: proteolytic enzymes in combined urine samples of patients (urothelial epithelial neoplasms)
Experiment: Effect of protease inhibitors on hydrolysis of ABZ-Leu-Glu-Pro-Val-ANB-NH2 in combined urine samples of patients
Format: biochemical, human
Conditions: inhibitor concentrations as in Table 1; fig. 3
Procedure: Proteolytic activity is dependent on the presence of specific compounds called inhibitors (proteolytic enzymes). Their incubation with a given biological material allows us to pre-determine the class of enzymes present in the tested samples. For this purpose, we have added effective inhibitory concentrations of certain classes of proteolytic enzymes to the combined urine samples of the ill persons - patients (urothelial epithelial neoplasms, in particular tumor).

AHX-VYDnV^P(C4H2Cl)2
inhibition of hydrolysis of ABZ-Leu-Glu-Pro-Val-ANB-NH2: complete inhibition of hydrolysis
